According to ChEMBL document CHEMBL1177713, “Discovery of 3-[2-(imidazo[1,2-b]pyridazin-3-yl)ethynyl]-4-methyl-N-{4-[(4-methylpiperazin-1-yl)methyl]-3-(trifluoromethyl)phenyl}benzamide (AP24534), a potent, orally active pan-inhibitor of breakpoint cluster region-abelson (BCR-ABL) kinase including the T315I gatekeeper mutant” (J Med Chem, 2010):

Tested on: not listed separately
Test: Oral bioavailability in CD rat at 15 mg/kg by LC-MS/MS analysis
Format: ADME, organism-based
Conditions: in vivo

bioavailability [%] | SMILES
29 | Cc1ccc(C(=O)Nc2ccc(CN3CCN(C)CC3)c(C(F)(F)F)c2)cc1C#Cc1cnc2ccccn12
22.3 | Cc1ccc(C(=O)Nc2ccc(CN3CCN(CCO)CC3)c(C(F)(F)F)c2)cc1C#Cc1cnc2cccnn12
15 | Cc1ccc(C(=O)Nc2ccc(CN3CCN(C)CC3)c(C(F)(F)F)c2)cc1C#Cc1cnc2[nH]ccc2c1
16.7 | Cc1ccc(C(=O)Nc2ccc(CN3CCN(C)CC3)c(C(F)(F)F)c2)cc1C#Cc1cnc2cnccn12

Tested on: not listed separately
Test: Volume of distribution in CD rat at 5 mg/kg, iv by LC-MS/MS analysis
Format: ADME, organism-based
Parameters: dose 5 mg/kg, route intravenous
Conditions: in vivo

Vd [L/kg] | SMILES
11 | Cc1ccc(C(=O)Nc2ccc(CN3CCN(C)CC3)c(C(F)(F)F)c2)cc1C#Cc1cnc2ccccn12
7.7 | Cc1ccc(C(=O)Nc2ccc(CN3CCN(CCO)CC3)c(C(F)(F)F)c2)cc1C#Cc1cnc2cccnn12
19.6 | Cc1ccc(C(=O)Nc2ccc(CN3CCN(C)CC3)c(C(F)(F)F)c2)cc1C#Cc1cnc2[nH]ccc2c1
14.7 | Cc1ccc(C(=O)Nc2ccc(CN3CCN(C)CC3)c(C(F)(F)F)c2)cc1C#Cc1cnc2cnccn12

Tested on: not listed separately
Test: Half life in CD rat at 5 mg/kg, iv by LC-MS/MS analysis
Format: ADME, organism-based
Parameters: dose 5 mg/kg, route intravenous
Conditions: in vivo

half-life [h] | SMILES
10.2 | Cc1ccc(C(=O)Nc2ccc(CN3CCN(C)CC3)c(C(F)(F)F)c2)cc1C#Cc1cnc2ccccn12
3.5 | Cc1ccc(C(=O)Nc2ccc(CN3CCN(CCO)CC3)c(C(F)(F)F)c2)cc1C#Cc1cnc2cccnn12
10.9 | Cc1ccc(C(=O)Nc2ccc(CN3CCN(C)CC3)c(C(F)(F)F)c2)cc1C#Cc1cnc2[nH]ccc2c1
3.5 | Cc1ccc(C(=O)Nc2ccc(CN3CCN(C)CC3)c(C(F)(F)F)c2)cc1C#Cc1cnc2cnccn12

Tested on: not listed separately
Test: Half life in mouse at 30 mg/kg, po by LC-MS/MS analysis
Conditions: in vivo

half-life [h] | SMILES
2.9 | Cc1ccc(C(=O)Nc2ccc(CN3CCN(C)CC3)c(C(F)(F)F)c2)cc1C#Cc1cnc2ccccn12
2.4 | Cc1ccc(C(=O)Nc2ccc(CN3CCN(CCO)CC3)c(C(F)(F)F)c2)cc1C#Cc1cnc2cccnn12
2.7 | Cc1ccc(C(=O)Nc2ccc(CN3CCN(C)CC3)c(C(F)(F)F)c2)cc1C#Cc1cnc2cnccn12

Tested on: BaF3
Test: cells
Conditions: Mus musculus, BaF3, 72 h
Description: Antiproliferative activity against mouse BA/F3 cells expressing wild type ABL after 3 days by MTS assay in presence of 340 uM human serum albumin

IC50 [nM] | SMILES
5.9 | Cc1ccc(C(=O)Nc2ccc(CN3CCN(C)CC3)c(C(F)(F)F)c2)cc1C#Cc1cnc2ccccn12

Tested on: not listed separately
Test: Tmax in CD rat at 15 mg/kg, po by LC-MS/MS analysis
Format: ADME, organism-based
Parameters: dose 15 mg/kg, route oral
Conditions: in vivo

Tmax [h] | SMILES
6 | Cc1ccc(C(=O)Nc2ccc(CN3CCN(C)CC3)c(C(F)(F)F)c2)cc1C#Cc1cnc2ccccn12
4 | Cc1ccc(C(=O)Nc2ccc(CN3CCN(CCO)CC3)c(C(F)(F)F)c2)cc1C#Cc1cnc2cccnn12
6 | Cc1ccc(C(=O)Nc2ccc(CN3CCN(C)CC3)c(C(F)(F)F)c2)cc1C#Cc1cnc2[nH]ccc2c1
4 | Cc1ccc(C(=O)Nc2ccc(CN3CCN(C)CC3)c(C(F)(F)F)c2)cc1C#Cc1cnc2cnccn12

Tested on: not listed separately
Test: AUC (0 to 24 hrs) in mouse at 30 mg/kg, po by LC-MS/MS analysis
Conditions: plasma

AUC(0-t) at 24 h [ng·h/mL] | SMILES
11300 | Cc1ccc(C(=O)Nc2ccc(CN3CCN(C)CC3)c(C(F)(F)F)c2)cc1C#Cc1cnc2ccccn12
13700 | Cc1ccc(C(=O)Nc2ccc(CN3CCN(CCO)CC3)c(C(F)(F)F)c2)cc1C#Cc1cnc2cccnn12
2690 | Cc1ccc(C(=O)Nc2ccc(CN3CCN(C)CC3)c(C(F)(F)F)c2)cc1C#Cc1cnc2cnccn12

Tested on: BaF3
Test: cells
Conditions: Mus musculus, BaF3, 72 h
Remark: another data set of the same source
Description: Antiproliferative activity against mouse BA/F3 cells expressing ABL T315I mutant after 3 days by MTS assay

IC50 [nM] | SMILES
26 | Cc1ccc(C(=O)Nc2ccc(CN3CCN(C)CC3)c(C(F)(F)F)c2)cc1C#Cc1cnc2ccccn12
14 | Cc1ccc(C(=O)Nc2ccc(CN3CCN(CCO)CC3)c(C(F)(F)F)c2)cc1C#Cc1cnc2cccnn12
14 | Cc1ccc(C(=O)Nc2ccc(CN3CCN(C)CC3)c(C(F)(F)F)c2)cc1C#Cc1cnc2[nH]ccc2c1
13 | Cc1ccc(C(=O)Nc2ccc(CN3CCN(C)CC3)c(C(F)(F)F)c2)cc1C#Cc1cnc2cnccn12

Tested on: not listed separately
Test: Half life in CD rat at 15 mg/kg, po by LC-MS/MS analysis
Format: ADME, organism-based
Parameters: dose 15 mg/kg, route oral
Conditions: in vivo

half-life [h] | SMILES
24.7 | Cc1ccc(C(=O)Nc2ccc(CN3CCN(C)CC3)c(C(F)(F)F)c2)cc1C#Cc1cnc2ccccn12
3.4 | Cc1ccc(C(=O)Nc2ccc(CN3CCN(CCO)CC3)c(C(F)(F)F)c2)cc1C#Cc1cnc2cccnn12
14.3 | Cc1ccc(C(=O)Nc2ccc(CN3CCN(C)CC3)c(C(F)(F)F)c2)cc1C#Cc1cnc2[nH]ccc2c1
5 | Cc1ccc(C(=O)Nc2ccc(CN3CCN(C)CC3)c(C(F)(F)F)c2)cc1C#Cc1cnc2cnccn12

Tested on: not listed separately
Test: Clearance in CD rat at 5 mg/kg, iv by LC-MS/MS analysis
Format: ADME, organism-based
Parameters: dose 5 mg/kg, route intravenous
Conditions: in vivo

clearance [mL/min/kg] | SMILES
12.5 | Cc1ccc(C(=O)Nc2ccc(CN3CCN(C)CC3)c(C(F)(F)F)c2)cc1C#Cc1cnc2ccccn12
25.5 | Cc1ccc(C(=O)Nc2ccc(CN3CCN(CCO)CC3)c(C(F)(F)F)c2)cc1C#Cc1cnc2cccnn12
20.8 | Cc1ccc(C(=O)Nc2ccc(CN3CCN(C)CC3)c(C(F)(F)F)c2)cc1C#Cc1cnc2[nH]ccc2c1
48.3 | Cc1ccc(C(=O)Nc2ccc(CN3CCN(C)CC3)c(C(F)(F)F)c2)cc1C#Cc1cnc2cnccn12

Tested on: BaF3
Test: cells
Conditions: Mus musculus, BaF3, 72 h
Remark: another data set of the same source
Description: Antiproliferative activity against mouse BA/F3 cells expressing wild type ABL after 3 days by MTS assay

IC50 [nM] | SMILES
3.6 | Cc1ccc(C(=O)Nc2ccc(CN3CCN(C)CC3)c(C(F)(F)F)c2)cc1C#Cc1cnc2ccccn12
1.5 | Cc1ccc(C(=O)Nc2ccc(CN3CCN(CCO)CC3)c(C(F)(F)F)c2)cc1C#Cc1cnc2cccnn12
4.4 | Cc1ccc(C(=O)Nc2ccc(CN3CCN(C)CC3)c(C(F)(F)F)c2)cc1C#Cc1cnc2[nH]ccc2c1
0.9 | Cc1ccc(C(=O)Nc2ccc(CN3CCN(C)CC3)c(C(F)(F)F)c2)cc1C#Cc1cnc2cnccn12

Tested on: Rattus norvegicus
Test: Dose normalized AUC (0 to 24 hrs) in CD rat at 15 mg/kg, po by LC-MS/MS analysis
Format: ADME, organism-based
Parameters: time < 24 hr, dose 15 mg/kg, route oral
Conditions: in vivo

AUC [ng·h/mL/mg/kg] | SMILES
386.3 | Cc1ccc(C(=O)Nc2ccc(CN3CCN(C)CC3)c(C(F)(F)F)c2)cc1C#Cc1cnc2ccccn12
145.3 | Cc1ccc(C(=O)Nc2ccc(CN3CCN(CCO)CC3)c(C(F)(F)F)c2)cc1C#Cc1cnc2cccnn12
119 | Cc1ccc(C(=O)Nc2ccc(CN3CCN(C)CC3)c(C(F)(F)F)c2)cc1C#Cc1cnc2[nH]ccc2c1
57 | Cc1ccc(C(=O)Nc2ccc(CN3CCN(C)CC3)c(C(F)(F)F)c2)cc1C#Cc1cnc2cnccn12

Tested on: BaF3
Test: cells
Conditions: Mus musculus, BaF3, 72 h
Remark: another data set of the same source
Description: Antiproliferative activity against mouse BA/F3 cells after 3 days by MTS assay

IC50 [nM] | SMILES
1570 | Cc1ccc(C(=O)Nc2ccc(CN3CCN(C)CC3)c(C(F)(F)F)c2)cc1C#Cc1cnc2ccccn12
1680 | Cc1ccc(C(=O)Nc2ccc(CN3CCN(CCO)CC3)c(C(F)(F)F)c2)cc1C#Cc1cnc2cccnn12
2020 | Cc1ccc(C(=O)Nc2ccc(CN3CCN(C)CC3)c(C(F)(F)F)c2)cc1C#Cc1cnc2[nH]ccc2c1
1290 | Cc1ccc(C(=O)Nc2ccc(CN3CCN(C)CC3)c(C(F)(F)F)c2)cc1C#Cc1cnc2cnccn12

Tested on: not listed separately
Test: Cmax in CD rat at 15 mg/kg, po by LC-MS/MS analysis
Format: ADME, organism-based
Parameters: dose 15 mg/kg, route oral
Conditions: CD, in vivo

Cmax [ng/mL] | SMILES
149 | Cc1ccc(C(=O)Nc2ccc(CN3CCN(C)CC3)c(C(F)(F)F)c2)cc1C#Cc1cnc2ccccn12
164 | Cc1ccc(C(=O)Nc2ccc(CN3CCN(CCO)CC3)c(C(F)(F)F)c2)cc1C#Cc1cnc2cccnn12
71 | Cc1ccc(C(=O)Nc2ccc(CN3CCN(C)CC3)c(C(F)(F)F)c2)cc1C#Cc1cnc2[nH]ccc2c1
57.8 | Cc1ccc(C(=O)Nc2ccc(CN3CCN(C)CC3)c(C(F)(F)F)c2)cc1C#Cc1cnc2cnccn12

Tested on: not listed separately
Test: Cmax in mouse at 30 mg/kg, po by LC-MS/MS analysis
Conditions: in vivo

Cmax [ng/mL] | SMILES
986 | Cc1ccc(C(=O)Nc2ccc(CN3CCN(C)CC3)c(C(F)(F)F)c2)cc1C#Cc1cnc2ccccn12
1330 | Cc1ccc(C(=O)Nc2ccc(CN3CCN(CCO)CC3)c(C(F)(F)F)c2)cc1C#Cc1cnc2cccnn12
521 | Cc1ccc(C(=O)Nc2ccc(CN3CCN(C)CC3)c(C(F)(F)F)c2)cc1C#Cc1cnc2cnccn12
